Test results reported in ChEMBL document CHEMBL4382233, “Discovery of novel arylethenesulfonyl fluorides as potential candidates against methicillin-resistant of Staphylococcus aureus (MRSA) for overcoming multidrug resistance of bacterial infections” (2019).
In brackets after ≈: the same amount, converted by molar mass. Activity calls are given as the source filed them. The rule behind the calls is not given here.

How the values were obtained:
[1] = test system: Staphylococcus aureus; test: Antibiofilm activity against methicillin-resistant Staphylococcus aureus at 2 times MIC after 24 hrs by crystal violet staining-based UV-visible spectrophotometric analysis; format: functional, organism-based
[2] = test system: Staphylococcus epidermidis; test: Antibacterial activity against methicillin-resistant Staphylococcus epidermidis after overnight incubation by micro broth dilution analysis; format: functional
[3] = test system: Staphylococcus epidermidis; test: Antibacterial activity against methicillin-resistant Staphylococcus epidermidis assessed as zone of inhibition at 800 ng/mL after 24 hrs by agar disc diffusion method; format: functional; details: read-out: IZ
[4] = test system: Staphylococcus haemolyticus; test: Antibacterial activity against methicillin-resistant Staphylococcus haemolyticus after overnight incubation by micro broth dilution analysis; format: functional
[5] = test system: Staphylococcus epidermidis; test: Antibacterial activity against methicillin-resistant Staphylococcus epidermidis assessed as zone of inhibition at 200 ng/mL after 24 hrs by agar disc diffusion method; format: functional; details: read-out: IZ
[6] = test system: Staphylococcus aureus; test: Antibacterial activity against methicillin-resistant Staphylococcus aureus assessed as zone of inhibition at 200 ng/mL after 24 hrs by agar disc diffusion method; format: functional; details: read-out: IZ
[7] = test system: Staphylococcus aureus; test: Induction of cellular content release in methicillin-resistant Staphylococcus aureus assessed as DNA content by measuring optical density at 260 nm at MIC after 240 mins by UV-visible spectrophotometric analysis; format: functional
[8] = test system: Staphylococcus epidermidis; test: Antibacterial activity against methicillin-resistant Staphylococcus epidermidis assessed as zone of inhibition at 20 ug/mL after 24 hrs by agar disc diffusion method; format: functional; details: read-out: IZ
[9] = test system: Staphylococcus epidermidis; test: Antibacterial activity against methicillin-resistant Staphylococcus epidermidis assessed as zone of inhibition at 400 ng/mL after 24 hrs by agar disc diffusion method; format: functional; details: read-out: IZ
[10] = test system: Staphylococcus aureus; test: Antibacterial activity against methicillin-resistant Staphylococcus aureus after overnight incubation by micro broth dilution analysis; format: functional
[11] = test system: Staphylococcus haemolyticus; test: Antibacterial activity against methicillin-resistant Staphylococcus haemolyticus assessed as zone of inhibition at 50 ug/mL after 24 hrs by agar disc diffusion method; format: functional; details: read-out: IZ
[12] = test system: Staphylococcus aureus; test: Antibacterial activity against methicillin-resistant Staphylococcus aureus assessed as zone of inhibition at 50 ug/mL after 24 hrs by agar disc diffusion method; format: functional; details: read-out: IZ
[13] = test system: Staphylococcus aureus; test: Antibacterial activity against methicillin-resistant Staphylococcus aureus assessed as zone of inhibition at 400 ng/mL after 24 hrs by agar disc diffusion method; format: functional; details: read-out: IZ
[14] = test system: Staphylococcus aureus; test: Antibacterial activity against methicillin-resistant Staphylococcus aureus assessed as zone of inhibition at 800 ng/mL after 24 hrs by agar disc diffusion method; format: functional; details: read-out: IZ
[15] = test system: Staphylococcus aureus; test: Antibiofilm activity against methicillin-resistant Staphylococcus aureus planktonic biofilm assessed as optical density at 492 nm at MIC after 24 hrs by crystal violet staining-based UV-visible spectrophotometric analysis; format: functional
[16] = test system: Staphylococcus aureus; test: Antibiofilm activity against methicillin-resistant Staphylococcus aureus at MIC after 24 hrs by crystal violet staining-based UV-visible spectrophotometric analysis; format: functional, organism-based
[17] = test system: Staphylococcus aureus; test: Induction of pore formation in methicillin-resistant Staphylococcus aureus cell membrane assessed as increase in ferricyanide mediated potassium efflux after 2 hrs by DCPIP dye-based cyclic voltammetric analysis; format: functional, organism-based
[18] = test system: Staphylococcus aureus; test: Induction of pore formation in methicillin-resistant Staphylococcus aureus cell membrane assessed as increase in ferricyanide mediated cellular leakage after 2 hrs by DCPIP dye-based cyclic voltammetric analysis; format: functional, organism-based
[19] = test system: Staphylococcus haemolyticus; test: Antibacterial activity against methicillin-resistant Staphylococcus haemolyticus assessed as zone of inhibition at 200 ng/mL after 24 hrs by agar disc diffusion method; format: functional; details: read-out: IZ
[20] = test system: Staphylococcus haemolyticus; test: Antibacterial activity against methicillin-resistant Staphylococcus haemolyticus assessed as zone of inhibition at 400 ng/mL after 24 hrs by agar disc diffusion method; format: functional; details: read-out: IZ
[21] = test system: Staphylococcus aureus; test: Induction of pore formation in methicillin-resistant Staphylococcus aureus cell membrane assessed as increase in ferricyanide mediated DNA damage after 2 hrs by DCPIP dye-based cyclic voltammetric analysis; format: functional, organism-based
[22] = test system: Staphylococcus haemolyticus; test: Antibacterial activity against methicillin-resistant Staphylococcus haemolyticus assessed as zone of inhibition at 800 ng/mL after 24 hrs by agar disc diffusion method; format: functional; details: read-out: IZ

Compound	Activity [1]	MIC99 [2]	zone of inhibition at 0.8 µg/mL [3]	MIC99 [4]	zone of inhibition at 0.2 µg/mL [5]	zone of inhibition at 0.2 µg/mL [6]	OD [7]	zone of inhibition at 20 µg/mL [8]	zone of inhibition at 0.4 µg/mL [9]	MIC99 [10]	zone of inhibition at 50 µg/mL [11]	zone of inhibition at 50 µg/mL [12]	zone of inhibition at 0.4 µg/mL [13]	zone of inhibition at 0.8 µg/mL [14]	OD [15]	zone of inhibition at 0.2 µg/mL [19]	zone of inhibition at 0.4 µg/mL [20]	zone of inhibition at 0.8 µg/mL [22]	also measured
O=[N+]([O-])c1cccc(/C=C/S(=O)(=O)F)c1	Active	0.831 µg/mL (≈ 3.59 µM)	7.2 mm	61.6 µg/mL (≈ 266 µM)	5.2 mm	5.2 mm	1.45	7.4 mm	6.2 mm	0.843 µg/mL (≈ 3.65 µM)	6.4 mm	9.1 mm	6.1 mm	9.7 mm					
CS(=O)(=O)c1ccc(/C=C/S(=O)(=O)F)cc1		50 µg/mL (≈ 189 µM)		43.2 µg/mL (≈ 163 µM)		4.1 mm	1.45	4.2 mm		15.1 µg/mL (≈ 56.9 µM)		10.3 mm	5.2 mm	7.1 mm	0.718				Activity [16]: Active
O=S(=O)(F)/C=C/c1cccc2ccccc12	Active	47 µg/mL (≈ 199 µM)		51 µg/mL (≈ 216 µM)		4.2 mm	1.48	5.5 mm		0.82 µg/mL (≈ 3.47 µM)	4.1 mm	9.2 mm	6.2 mm	9.2 mm					
O=C(O)c1cn(C2CC2)c2cc(N3CCNCC3)c(F)cc2c1=O [CIPROFLOXACIN]	Active														0.915				
COc1cccc(/C=C/S(=O)(=O)F)c1	Active	55.2 µg/mL (≈ 255 µM)		63.2 µg/mL (≈ 292 µM)		4.1 mm	1.56	4.3 mm		0.842 µg/mL (≈ 3.89 µM)	6.3 mm	9.1 mm	5.2 mm	9.1 mm					
Cc1ccc(/C=C/S(=O)(=O)F)cc1		44.2 µg/mL (≈ 221 µM)		40.1 µg/mL (≈ 201 µM)		4.1 mm	1.48	6.4 mm		0.836 µg/mL (≈ 4.18 µM)	6.3 mm	10.3 mm	5.2 mm	7.1 mm	0.815				Activity [16]: Active
O=S(=O)(F)/C=C/c1cc(Cl)cc(Cl)c1		48.1 µg/mL (≈ 188 µM)		16.3 µg/mL (≈ 63.9 µM)		6.2 mm	1.34	4.4 mm		0.812 µg/mL (≈ 3.18 µM)	13.1 mm	20.1 mm	10.2 mm	14.2 mm	0.825	0 mm	3.3 mm	5.1 mm	Activity [17]: Active; Activity [18]: Active; Activity [21]: Active; Activity [16]: Active
Cc1cc(C)cc(/C=C/S(=O)(=O)F)c1	Active	0.818 µg/mL (≈ 3.82 µM)	9.8 mm	60.2 µg/mL (≈ 281 µM)	3.3 mm		1.37	9.2 mm	5.2 mm	40.2 µg/mL (≈ 188 µM)	3.5 mm	7.2 mm							
GENTAMICIN	Active														0.808				
Cc1cc(/C=C/S(=O)(=O)F)ccc1Br	Active	50 µg/mL (≈ 179 µM)		57.2 µg/mL (≈ 205 µM)		6.2 mm	1.61	6.3 mm		0.81 µg/mL (≈ 2.9 µM)	5.3 mm	12 mm	8.2 mm	10.4 mm					
CCOC(=O)/C=C/C=C/S(=O)(=O)F		47 µg/mL (≈ 226 µM)	3.1 mm	56.1 µg/mL (≈ 269 µM)	3.3 mm			8.2 mm	4.1 mm	40.3 µg/mL (≈ 193 µM)	7.5 mm	4.1 mm				0 mm	3.2 mm	5.1 mm	
O=S(=O)(F)/C=C/c1ccccc1		15.2 µg/mL (≈ 81.4 µM)	5.5 mm	20.1 µg/mL (≈ 108 µM)	0.1 mm	3.5 mm		11.2 mm	4.2 mm	18.2 µg/mL (≈ 97.5 µM)	7.2 mm	8.2 mm	4.2 mm	4.5 mm		0 mm	1.2 mm	3.2 mm	
O=S(=O)(F)/C=C/c1ccccc1Br		0.809 µg/mL (≈ 3.05 µM)	14.2 mm	25.3 µg/mL (≈ 95.5 µM)	10.1 mm	3.5 mm	1.58	14.1 mm	11.5 mm	0.839 µg/mL (≈ 3.16 µM)	11.2 mm	20.1 mm	4.4 mm	7.2 mm	0.725	1.1 mm	2.2 mm	3.3 mm	
O=[N+]([O-])c1ccc(/C=C/S(=O)(=O)F)cc1	Active	58.2 µg/mL (≈ 252 µM)		0.833 µg/mL (≈ 3.6 µM)		5.1 mm	1.35	6.2 mm		0.823 µg/mL (≈ 3.56 µM)	7.3 mm	8.12 mm	7.2 mm	10.1 mm		4.1 mm	5.2 mm	7.4 mm	
CC(=O)c1cccc(/C=C/S(=O)(=O)F)c1	Active	55.6 µg/mL (≈ 244 µM)		0.843 µg/mL (≈ 3.69 µM)		5.2 mm	1.28	3.3 mm		0.851 µg/mL (≈ 3.73 µM)	8.2 mm	10.1 mm	7.5 mm	8.1 mm		4.2 mm	5.2 mm	6.2 mm	Activity [17]: Active; Activity [18]: Active; Activity [21]: Active
CC(C)S(=O)(=O)c1ccc(/C=C/S(=O)(=O)F)cc1		41.4 µg/mL (≈ 142 µM)		41.2 µg/mL (≈ 141 µM)		6.2 mm	1.78	6.2 mm		0.808 µg/mL (≈ 2.76 µM)	5.2 mm	9 mm	8.1 mm	10.1 mm	0.6				Activity [16]: Active
COc1ccccc1/C=C/S(=O)(=O)F	Active	0.829 µg/mL (≈ 3.83 µM)	8.4 mm	0.837 µg/mL (≈ 3.87 µM)	5.1 mm			7.2 mm	7.2 mm	69.1 µg/mL (≈ 319 µM)	12.2 mm	5.2 mm				3.2 mm	5.2 mm	7.1 mm	
O=S(=O)(F)/C=C/c1cccc(O)c1	Active	0.83 µg/mL (≈ 4.1 µM)	7.4 mm	58.2 µg/mL (≈ 288 µM)	4.2 mm	3.5 mm	1.52	7.4 mm	5.3 mm	0.841 µg/mL (≈ 4.16 µM)	4.5 mm	12.2 mm	4.1 mm	6.3 mm					
O=S(=O)(F)/C=C/c1ccc(C(F)(F)F)nc1		0.838 µg/mL (≈ 3.28 µM)	7.2 mm	40 µg/mL (≈ 157 µM)	4.2 mm	5.1 mm	1.67	8.5 mm	5.1 mm	0.811 µg/mL (≈ 3.18 µM)	5.5 mm	12.2 mm	7.2 mm	11.2 mm	0.815				Activity [16]: Active
